Reference: publication PMC10544018 (Journal of Medicinal Chemistry, 2023)

Experiments:
VCB protein = target: T1, VCB protein (Homo sapiens, UniProt P40337); experiment: Competitive fluorescence polarization (FP) binding assay, displacement of FAM-labeled HIF-1α peptide; settings: for Kd: dissociation constant, determined by FP, mean ± S.E.M., back-calculated from IC50; for IC50: mean IC50 values obtained from the FP assay, read-out: IC50 ± S.E.M, FP assay
T1 construct: A plasmid containing pVHL54–213 with an N-terminal His6 tag; His6 (N, cleaved yes); made in house; host or cells: Escherichia coli BL21 (DE3)
Experimental: Binding of a ligand to the HIF binding site of VHL displaces a fluorescein-labeled, 19-mer HIF-1α oligopeptide, leading to a change in polarization of emitted light upon excitation of the competing fluorescent probe.
All components were dissolved from stock solutions using 100 mM Bis–Tris, 100 mM NaCl, 1 mM DTT, pH 7.0, to yield a final assay volume of 15 μL. DMSO was added as appropriate to ensure a final concentration of 2% (v/v). Control wells containing VCB and JC9 with no compound (zero displacement), or JC9, in the absence of protein (maximum displacement) were also included to allow for normalization. Percentage displacement values were obtained by normalization of controls and were plotted against log[compound]. The IC50 values were determined for each titration using non-linear regression analysis with Prism GraphPad (Table S1). Dissociation constants Kd for the compound–VCB interaction were back-calculated from the measured IC50 values by using a displacement binding model as described.[16],[64]

human serum albumin = human serum albumin (Homo sapiens, UniProt P02768); experiment: PPB studies on HSA HPLC column; type: in vitro ADME; settings: CHIRALPAK HSA HPLC column (human serum albumin); experimentally determined percentage of the compound bound to human serum albumin
Experimental: (§1) Both were experimentally obtained employing HPLC-based protocols.[39],[40] […] PPB values were determined in view of how they could impact future pharmacokinetic studies of compounds as VHL inhibitors, or once conjugated into bifunctional PROTACs, for which PPB can be a limiting factor.
PPB was estimated by correlating the logarithmic retention times of the analytes on a […] HSA 50 × 3 mm, 5 μm column with the literature-known % PPB values (converted into log K values) of the following drugs: warfarin, ketoprofen, budesonide, nizatidine, indomethacin, acetylsalicylic acid, carbamazepine, piroxicam, nicardipine, and cimetidine.[63] Samples were dissolved in MeCN/DMSO 9:1 to achieve a final concentration of 0.5 mg/mL. The mobile phase A was 50 mM ammonium acetate adjusted to pH 7.4 with 10% NaOH, while mobile phase B was iPrOH. […] After injecting 3 μL of the sample, a linear gradient from 100% A to 30% iPrOH in 5.4 min was applied. From 5.4 to 18 min, 30% iPrOH was kept, followed by switching back to 100% A in 1.0 min and a re-equilibration time of 6 min.

[1] = Log D7.4 measurement by chromatographic method; type: physicochemical; settings: experimental distribution coefficient at pH 7.4; read-out: e log D7.4
Experimental: as §1
The determination of the log D7.4 values was performed by a chromatographic method as described previously.[41],[62] […] Subsequently, the mean retention times (n = 2) of the analytes were taken to calculate their log D7.4 values.

SMILES	Kd (VCB protein)	IC50 (VCB protein)	fraction unbound at 0.5 mg/mL (human serum albumin)	chromatographic logD [1]
COc1cc(CNC(=O)[C@@H]2C[C@@H](O)CN2C(=O)[C@@H](NC(=O)C2(C#N)CC2)C(C)(C)C)ccc1-c1scnc1C [Compound 7, (2S,4R)-1-((S)-2-(1-Cyanocyclopropane-1-carboxamido)-3,3-dimethylbutanoyl)-4-hydroxy-N-(3-methoxy-4-(4-methylthiazol-5-yl)benzyl)pyrrolidine-2-carboxamide]	163 ± 22 nM	742 ± 14 nM	0.13	1.9
Cc1ncsc1-c1cc(F)c(CNC(=O)[C@@H]2C[C@@H](O)CN2C(=O)[C@@H](NC(=O)C2(C#N)CC2)C(C)(C)C)cc1F [Compound 16, (2S,4R)-1-((S)-2-(1-Cyanocyclopropane-1-carboxamido)-3,3-dimethylbutanoyl)-N-(2,5-difluoro-4-(4-methylthiazol-5-yl)benzyl)-4-hydroxypyrrolidine-2-carboxamide]	281 ± 46 nM	1440 ± 198 nM	0.12	2
COc1cc(-c2scnc2C)ccc1CNC(=O)[C@@H]1C[C@@H](O)CN1C(=O)[C@@H](NC(=O)C1(C#N)CC1)C(C)(C)C [Compound 3, (2S,4R)-1-((S)-2-(1-Cyanocyclopropane-1-carboxamido)-3,3-dimethylbutanoyl)-4-hydroxy-N-(2-methoxy-4-(4-methylthiazol-5-yl)benzyl)pyrrolidine-2-carboxamide]	183 ± 22 nM	837 ± 35 nM	0.12	1.9
Cc1ncsc1-c1ccc(CNC(=O)[C@@H]2C[C@@H](O)CN2C(=O)[C@@H](NC(=O)C2(C#N)CC2)C(C)(C)C)c(C)c1C [Compound 18, (2S,4R)-1-((S)-2-(1-Cyanocyclopropane-1-carboxamido)-3,3-dimethylbutanoyl)-N-(2,3-dimethyl-4-(4-methylthiazol-5-yl)benzyl)-4-hydroxypyrrolidine-2-carboxamide]	322 ± 38 nM	1650 ± 100 nM	0.09	2.3
Cc1ncsc1-c1ccc(CNC(=O)[C@@H]2C[C@@H](O)CN2C(=O)[C@@H](NC(=O)C2(C#N)CC2)C(C)(C)C)c(F)c1F [Compound 19, (2S,4R)-1-((S)-2-(1-Cyanocyclopropane-1-carboxamido)-3,3-dimethylbutanoyl)-N-(2,3-difluoro-4-(4-methylthiazol-5-yl)benzyl)-4-hydroxypyrrolidine-2-carboxamide]	1450 ± 180 nM	7450 ± 624 nM	0.11	2.2
Cc1ncsc1-c1cc(Cl)c(CNC(=O)[C@@H]2C[C@@H](O)CN2C(=O)[C@@H](NC(=O)C2(C#N)CC2)C(C)(C)C)c(Cl)c1 [Compound 13, (2S,4R)-1-((S)-2-(1-Cyanocyclopropane-1-carboxamido)-3,3-dimethylbutanoyl)-N-(2,6-dichloro-4-(4-methylthiazol-5-yl)benzyl)-4-hydroxypyrrolidine-2-carboxamide]	8150 ± 680 nM	42000 ± 1920 nM	0.09	2.4
Cc1ncsc1-c1ccc(CNC(=O)[C@@H]2C[C@@H](O)CN2C(=O)[C@@H](NC(=O)C2(C#N)CC2)C(C)(C)C)c(O)c1F [Compound 20, (2S,4R)-1-((S)-2-(1-Cyanocyclopropane-1-carboxamido)-3,3-dimethylbutanoyl)-N-(3-fluoro-2-hydroxy-4-(4-methylthiazol-5-yl)benzyl)-4-hydroxypyrrolidine-2-carboxamide]	141 ± 8 nM	727 ± 7 nM	0.11	1.9
COc1cc(-c2scnc2C)c(OC)cc1CNC(=O)[C@@H]1C[C@@H](O)CN1C(=O)[C@@H](NC(=O)C1(C#N)CC1)C(C)(C)C [Compound 15, (2S,4R)-1-((S)-2-(1-Cyanocyclopropane-1-carboxamido)-3,3-dimethylbutanoyl)-N-(2,5-dimethoxy-4-(4-methylthiazol-5-yl)benzyl)-4-hydroxypyrrolidine-2-carboxamide]	1270 ± 150 nM	6530 ± 428 nM	0.14	1.9
Cc1cc(-c2scnc2C)ccc1[C@H](C)NC(=O)[C@@H]1C[C@@H](O)CN1C(=O)[C@@H](NC(=O)C1(C#N)CC1)C(C)(C)C [Compound 24, (2S,4R)-1-((S)-2-(1-Cyanocyclopropane-1-carboxamido)-3,3-dimethylbutanoyl)-4-hydroxy-N-((S)-1-(2-methyl-4-(4-methylthiazol-5-yl)phenyl)ethyl)pyrrolidine-2-carboxamide]	86 ± 20 nM	329 ± 51 nM	0.12	2.3
Cc1ncsc1-c1cc(Cl)c(CNC(=O)[C@@H]2C[C@@H](O)CN2C(=O)[C@@H](NC(=O)C2(C#N)CC2)C(C)(C)C)cc1Cl [Compound 17, (2S,4R)-1-((S)-2-(1-Cyanocyclopropane-1-carboxamido)-3,3-dimethylbutanoyl)-N-(2,5-dichloro-4-(4-methylthiazol-5-yl)benzyl)-4-hydroxypyrrolidine-2-carboxamide]	883 ± 68 nM	4560 ± 208 nM	0.07	2.5
Cc1cc(-c2scnc2C)c(C)cc1CNC(=O)[C@@H]1C[C@@H](O)CN1C(=O)[C@@H](NC(=O)C1(C#N)CC1)C(C)(C)C [Compound 14, (2S,4R)-1-((S)-2-(1-Cyanocyclopropane-1-carboxamido)-3,3-dimethylbutanoyl)-N-(2,5-dimethyl-4-(4-methylthiazol-5-yl)benzyl)-4-hydroxypyrrolidine-2-carboxamide]	528 ± 16 nM	2740 ± 122 nM	0.1	2.2
COc1cc(-c2scnc2C)cc(OC)c1CNC(=O)[C@@H]1C[C@@H](O)CN1C(=O)[C@@H](NC(=O)C1(C#N)CC1)C(C)(C)C [Compound 11, (2S,4R)-1-((S)-2-(1-Cyanocyclopropane-1-carboxamido)-3,3-dimethylbutanoyl)-N-(2,6-dimethoxy-4-(4-methylthiazol-5-yl)benzyl)-4-hydroxypyrrolidine-2-carboxamide]	6240 ± 620 nM	32100 ± 2150 nM	0.12	2
Cc1ncsc1-c1cc2c(cc1F)[C@@H](NC(=O)[C@@H]1C[C@@H](O)CN1C(=O)[C@@H](NC(=O)C1(F)CC1)C(C)(C)C)CC2 [Compound 36, (2S,4R)-N-((S)-6-Fluoro-5-(4-methylthiazol-5-yl)-2,3-dihydro-1H-inden-1-yl)-1-((S)-2-(1-fluorocyclopropane-1-carboxamido)-3,3-dimethylbutanoyl)-4-hydroxypyrrolidine-2-carboxamide]	2550 ± 510 nM	10600 ± 2030 nM	–	2.3
Cc1ncsc1-c1cc2c(cc1F)[C@@H](NC(=O)[C@@H]1C[C@@H](O)CN1C(=O)[C@@H](NC(=O)C1(F)CC1)C(C)(C)C)CCC2 [Compound 37, (2S,4R)-N-((S)-7-Fluoro-6-(4-methylthiazol-5-yl)-1,2,3,4-tetrahydronaphthalen-1-yl)-1-((S)-2-(1-fluorocyclopropane-1-carboxamido)-3,3-dimethylbutanoyl)-4-hydroxypyrrolidine-2-carboxamide]	1040 ± 240 nM	4400 ± 1060 nM	0.08	2.6
Cc1ncsc1-c1ccc(CNC(=O)[C@@H]2C[C@@H](O)CN2C(=O)[C@@H](NC(=O)C2(F)CC2)C(C)(C)C)cc1 [Compound 38, (2S,4R)-1-((S)-2-(1-Fluorocyclopropane-1-carboxamido)-3,3-dimethylbutanoyl)-4-hydroxy-N-(4-(4-methylthiazol-5-yl)benzyl)pyrrolidine-2-carboxamide, reference compound]	–	–	0.14	1.8
COc1c(CNC(=O)[C@@H]2C[C@@H](O)CN2C(=O)[C@@H](NC(=O)C2(C#N)CC2)C(C)(C)C)ccc(-c2scnc2C)c1F [Compound 21, (2S,4R)-1-((S)-2-(1-Cyanocyclopropane-1-carboxamido)-3,3-dimethylbutanoyl)-N-(3-fluoro-2-methoxy-4-(4-methylthiazol-5-yl)benzyl)-4-hydroxypyrrolidine-2-carboxamide]	–	–	0.11	2.1
